We go through three compounds from ChEMBL document CHEMBL1201862, “PubChem BioAssay data set” (2004).

Activity calls are given as the source filed them. Unless noted, the rule behind the calls is not given here. Bounds are passed on as bounds.

A short description of experiment [1]: time-course viability loss in HT-29 cells – cell-based, CellTiter-Glo, multiple timepoints, dry powder, HRas target identification project, dose response (AID 720598). The class given is functional. (ATP-based viability assays read luminescence as a measure of living cells.)
Experiment [2] can be described thus: cytotoxicity in SR immunoblastic lymphoma cells – cell-based, CellTiter-Glo ATP luminescence, 8-48 h, dry powder, mechanism study for HRAS target identification, late-stage follow-up (AID 720608). In kind it is functional.
The nature of experiment [3]: cytotoxicity in SNB-19 cells – cell-based, CellTiter-Glo ATP luminescence, 8-48 h, dry powder, mechanism study for HRAS target identification, late-stage follow-up (AID 720611). In kind it is functional.
Experiment [4] is described as follows: cytotoxicity in LOX IMVI melanoma cells – cell-based, CellTiter-Glo ATP luminescence, 8/24/48 h, dry powder, HRAS target identification, dose response (AID 720602). In kind it is functional.
Experiment [5] is described as follows: cytotoxicity in HeLa cervical cancer cells – cell-based, CellTiter-Glo ATP luminescence, 8-48 h, dry powder, mechanism study for HRAS target identification, late-stage follow-up (AID 720609). The class given is functional.
Experiment [6] is described as follows: cytotoxicity in SNB-75 CNS cells – cell-based, CellTiter-Glo ATP luminescence, several timepoints, dry powder, mechanism study for HRAS target identification, late-stage follow-up (AID 720624). In kind it is functional.
The nature of experiment [7]: cytotoxicity in primary human umbilical endothelium – cell-based, CellTiter-Glo ATP luminescence, 8/24/48 h, dry powder, cytotoxicity control for HRAS target identification, dose response (AID 720604). In kind it is functional. To be noted: HUVEC.
The nature of experiment [8]: cytotoxicity in mouse C2C12 myoblasts – cell-based, CellTiter-Glo ATP luminescence, 8/24/48 h, dry powder, cytotoxicity control for HRAS target identification, dose response (AID 720603). The class given is functional.
Experiment [9] in a line: cytotoxicity in SNB-19 CNS tumor cells – cell-based, Alamar Blue fluorescence, 8/24/48 h, dry powder, HRAS target identification, dose response (AID 720600). In kind it is functional. (Alamar Blue is a resazurin reagent that responds to reducing activity.)
Experiment [10] is described as follows: cytotoxicity in U-251 glioma cells – cell-based, CellTiter-Glo ATP luminescence, several timepoints, dry powder, mechanism study for HRAS target identification, late-stage follow-up (AID 720616). In kind it is functional.
The nature of experiment [11]: cytotoxicity in CCRF-CEM lymphoblastic leukemia cells – cell-based, CellTiter-Glo ATP luminescence, 8/24/48 h, dry powder, HRAS target identification, dose response (AID 720607). The class given is functional.
Experiment [12] can be described thus: Luminescence-based cell-based high throughput dose response assay to identify activators of the DAF-12 from the parasite S. stercoralis (ssDAF-12). In kind it is functional.
In experiment [13] the target is T1, Oxysterols receptor LXR-beta (Homo sapiens, UniProt P55055).
T1 sequence (P55055 whole entry): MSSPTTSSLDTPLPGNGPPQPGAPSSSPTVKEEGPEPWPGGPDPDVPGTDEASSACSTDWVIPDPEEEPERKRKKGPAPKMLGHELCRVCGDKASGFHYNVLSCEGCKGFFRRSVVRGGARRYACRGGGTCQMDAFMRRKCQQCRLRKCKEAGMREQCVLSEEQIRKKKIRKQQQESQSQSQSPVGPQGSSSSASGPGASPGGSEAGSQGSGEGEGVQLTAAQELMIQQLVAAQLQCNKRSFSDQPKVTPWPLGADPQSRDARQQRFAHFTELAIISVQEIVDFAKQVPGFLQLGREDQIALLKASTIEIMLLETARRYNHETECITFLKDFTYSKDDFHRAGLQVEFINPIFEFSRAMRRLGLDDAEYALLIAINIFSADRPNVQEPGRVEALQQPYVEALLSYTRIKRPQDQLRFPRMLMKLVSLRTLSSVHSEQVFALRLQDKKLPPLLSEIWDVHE
Put plainly: LXR agonists, Gal4 luciferase reporter, dose response, counter-screen for ssDAF-12 agonist project, cell-based, luminescence, HEK293, S. stercoralis campaign (AID 720737). To be noted: read-out: IC50 (the source's name). The class given is functional. (In general: A reporter such as luciferase makes a cellular process visible.)

For experiment [14], the system named is BJ. As to the kind of experiment: BJ-TERT fibroblast viability loss – cell-based, RAS-independent, luminescence, dose response (AID 1933). The settings on record: Homo sapiens. The class given is functional.
Experiment [15] concerns the target T2, Heat shock factor protein 1 (Mus musculus, UniProt P38532).
T2 sequence (P38532 whole entry): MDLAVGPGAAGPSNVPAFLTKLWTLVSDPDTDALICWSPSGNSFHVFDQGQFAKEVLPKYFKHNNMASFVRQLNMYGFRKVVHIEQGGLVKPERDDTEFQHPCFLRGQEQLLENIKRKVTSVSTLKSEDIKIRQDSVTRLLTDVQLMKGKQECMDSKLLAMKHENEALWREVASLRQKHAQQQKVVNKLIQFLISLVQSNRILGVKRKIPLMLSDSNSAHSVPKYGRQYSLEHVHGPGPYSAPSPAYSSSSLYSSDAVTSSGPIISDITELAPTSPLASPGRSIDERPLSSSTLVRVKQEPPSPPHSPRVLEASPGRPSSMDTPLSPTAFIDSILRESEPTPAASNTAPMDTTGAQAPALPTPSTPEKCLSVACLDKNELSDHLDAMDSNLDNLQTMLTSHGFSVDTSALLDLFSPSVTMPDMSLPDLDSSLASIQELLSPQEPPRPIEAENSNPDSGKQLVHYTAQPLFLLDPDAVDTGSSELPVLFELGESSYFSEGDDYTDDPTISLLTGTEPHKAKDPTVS
Put plainly: decrease of HSF1-responsive luciferase luminescence – cell-based, NIH3T3, dose retest, confirmation (AID 2382).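 Also: NIH3T3 fibroblasts with HSF1-driven luciferase reporter stressed by proteasome inhibitor MG132; luminescence from HSF1-driven luciferase expression after 8 hours of MG132 stress.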 The class given is functional.

Experiment [16] has as its system BJ. As to the kind of experiment: cells. In kind it is functional, cell-based. To be noted: Homo sapiens.
In experiment [17] the test system is BJ. As to the kind of experiment: BJ-TERT-LT-ST fibroblast viability loss – cell-based, RAS-independent, luminescence, dose response (AID 1935).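 Also: BJ fibroblasts immortalized with TERT plus LT and ST oncogenes.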 In kind it is functional. The settings on record: Homo sapiens.
Experiment [18] is described as follows: DRD fibroblast viability loss – cell-based, non-viral oncogenic, luminescence, dose response (AID 1934). In kind it is functional. To be noted: Homo sapiens.
The nature of experiment [19]: HEK-293T viability loss after treatment – luminescence, T-cell screen hits, cytotoxicity control for TCR NF-kB inhibitor project, dose response (AID 489026).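 Also: cells exposed to compound about 14 hours before the viability readout.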 The class given is functional, cell-based.
The subject of experiment [20] is BJ. Put plainly: growth inhibition of engineered Ras-driven BJ cells – cell-based, alamar blue fluorescence, cherrypicked samples, dose response (AID 2631).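 Also: confirmatory dose-response assay in RAS-dependent BJ fibroblasts engineered with TERT, LT and ST, with cytotoxicity read by fluorescence.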 In kind it is functional. The settings on record: Homo sapiens.
A short description of experiment [21]: reduction of Shn3 3'UTR-driven luciferase in osteoblasts – cell-based, Clone20 osteoblasts, firefly luciferase, cherry-picked, dose response (AID 624132).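 Also: firefly luciferase luminescence from reporter carrying the Shn3 3'UTR in osteoblasts.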 The class given is functional.
Experiment [22] in a line: non-specific 3'UTR reporter inhibition in Clone20-Shn3RL – cell-based, Renilla luciferase, cherry-picked, counter-screen for Shn3 inhibitor project, dose response (AID 624133). In kind it is functional.
The target in experiment [23] is Paired box protein Pax-8 (Homo sapiens, UniProt Q06710). Put plainly: PAX8 transcriptional activity inhibition in RMG-I – RMG-I cells, luciferase, cherry-pick, dose response (AID 687027).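 Also: luciferase reporter driven by Pax8 target thyroperoxidase promoter measured by SteadyGlo luminescence.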 In kind it is functional, cell-based.
Chain of Paired box protein Pax-8 (Q06710 whole entry): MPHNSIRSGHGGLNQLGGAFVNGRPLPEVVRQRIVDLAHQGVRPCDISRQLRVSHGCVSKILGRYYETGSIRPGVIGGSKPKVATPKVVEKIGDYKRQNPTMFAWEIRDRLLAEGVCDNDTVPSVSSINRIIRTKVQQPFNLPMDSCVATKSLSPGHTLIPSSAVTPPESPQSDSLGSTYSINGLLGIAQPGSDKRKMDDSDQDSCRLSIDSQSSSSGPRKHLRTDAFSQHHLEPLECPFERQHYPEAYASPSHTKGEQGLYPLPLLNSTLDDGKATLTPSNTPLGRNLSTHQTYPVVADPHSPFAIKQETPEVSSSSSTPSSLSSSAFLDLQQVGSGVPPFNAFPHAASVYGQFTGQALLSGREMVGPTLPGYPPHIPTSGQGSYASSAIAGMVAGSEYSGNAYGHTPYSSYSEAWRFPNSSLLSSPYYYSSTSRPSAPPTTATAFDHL
Experiment [24] in a line: inhibitors acting on PAX2 in cells – cell-based, plate reader, dry powder samples, selectivity assay for PAX8 inhibitor project, dose response (AID 743048).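 Also: HEK293 cells carrying a WT1 promoter luciferase reporter driven by expressed Pax2; potency is for inhibition of Pax2 driven reporter signal.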 The class given is functional.
A short description of experiment [25]: COV362 cell viability loss – plate reader, dry powder, SA12, cytotoxicity control for PAX8 inhibitor project, dose response (AID 743144). The class given is functional, cell-based.
Experiment [26] can be described thus: toxicity toward immortalized ovarian surface epithelium – cell-based, plate reader, dry powder samples, cytotoxicity control for PAX8 inhibitor project, dose response (AID 743045). The class given is functional.
Experiment [27] in a line: A2780 cell killing – plate reader, dry powder samples, cytotoxicity control, dose response (AID 743046). In kind it is functional, cell-based.
Experiment [28] in a line: OVCAR-3 cell viability loss – plate reader, dry powder samples, PAX8 inhibitor project, dose response (AID 743044). The class given is functional, cell-based.
A short description of experiment [29]: PAX5 cellular inhibition readout – cell-based, plate reader, dry powder samples, selectivity assay for PAX8 inhibitor project, dose response (AID 743047).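 Also: HEK293 cells carrying a Pax5 driven CD19 promoter luciferase reporter; potency of inhibitors that lower reporter luminescence.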 In kind it is functional.
Experiment [30] is described as follows: IGROV1 cell killing – plate reader, dry powder samples, PAX8 inhibitor project, dose response (AID 743043). The class given is functional, cell-based. To be noted: IGROV-1.
The nature of experiment [31]: OVCAR4 cell viability loss – plate reader, dry powder, SA11, cytotoxicity control for PAX8 inhibitor project, dose response (AID 743150). In kind it is functional, cell-based. The settings on record: OVCAR-4.
Experiment [32] can be described thus: COV434 cell viability loss – plate reader, dry powder, SA7, cytotoxicity control for PAX8 inhibitor project, dose response (AID 743145). In kind it is functional, cell-based.
Experiment [33] can be described thus: OV-90 cell viability loss – plate reader, dry powder, SA8, PAX8 inhibitor project, dose response (AID 743149). In kind it is functional, cell-based.
Experiment [34] can be described thus: PAX8-dependent cell viability loss – plate reader, dry powder, dose response (AID 743049). In kind it is functional, cell-based.

By AC50 is commonly meant the concentration at which the activity in the assay is half-maximal. Take `CC(C)(C)OC(=O)NCCOCCOCCOc1ccc(N(C(=O)CCl)C(C(=O)NCCc2ccccc2)c2cccs2)cc1Cl` (centres undefined): the half-maximal activity concentration (AC50) is 492 nM (active) in [1]; 126 nM (active) in [2]; 1790 nM (active) in experiment [3]; 156 nM (active) in [4]; 675 nM (active) in experiment [5]; 738 nM (active) in [6]. For the same compound, the AC50 in [7] is 21400 nM (active); in experiment [8], 643 nM (active); in experiment [9], 21200 nM (active); in [10], 1450 nM (active); in [11], 177 nM (active).
As a reminder, the IC50 is the midpoint of a concentration-inhibition curve. In the case of `COc1ccc(-c2noc(CCC(=O)N3CCC(c4cc(C)ccc4C)CC3)n2)cc1`, in [12], the IC50 was > 67500 nM (inactive). Moreover, the EC50 in experiment [13] is > 67500 nM (inactive).
For `COc1ccc(C)cc1NS(=O)(=O)c1ccc(-c2cnc(C3CC3)o2)cc1`, the EC50 in experiment [14] was 208 nM (active); in [15], 430 nM (active); in experiment [16] it was 990 nM (active); in experiment [17], 11100 nM (inconclusive); in experiment [18] it was 388 nM (active); in experiment [20], < 104 nM (active). The IC50 in experiment [19] was > 80000 nM (inactive). For the same compound, the AC50 in experiment [21] was 3760 nM (active); in experiment [22], 6580 nM (active); in experiment [23] it was 734 nM (active); in experiment [24] it was 8910 nM (active); in [25] it was 118 nM (active); in experiment [26] it was 217 nM (active). The AC50 was 3450 nM (active) in experiment [27]; 1770 nM (active) in [28]; 1830 nM (active) in experiment [29]; 1490 nM (active) in experiment [30]; 199 nM (active) in [31]; 337 nM (active) in experiment [32]. Besides, the half-maximal activity concentration (AC50) is 612 nM (active) in [33] and 5690 nM (active) in [34].
